The values that follow come from ChEMBL document CHEMBL1134339, “New 1-aryl-3-(4-arylpiperazin-1-yl)propane derivatives, with dual action at 5-HT1A serotonin receptors and serotonin transporter, as a new class of antidepressants” (J Med Chem, 2001).

For assay [1], the target named is T1, 5-hydroxytryptamine receptor 3A (Rattus norvegicus, UniProt P35563).
T1 sequence (P35563 whole entry): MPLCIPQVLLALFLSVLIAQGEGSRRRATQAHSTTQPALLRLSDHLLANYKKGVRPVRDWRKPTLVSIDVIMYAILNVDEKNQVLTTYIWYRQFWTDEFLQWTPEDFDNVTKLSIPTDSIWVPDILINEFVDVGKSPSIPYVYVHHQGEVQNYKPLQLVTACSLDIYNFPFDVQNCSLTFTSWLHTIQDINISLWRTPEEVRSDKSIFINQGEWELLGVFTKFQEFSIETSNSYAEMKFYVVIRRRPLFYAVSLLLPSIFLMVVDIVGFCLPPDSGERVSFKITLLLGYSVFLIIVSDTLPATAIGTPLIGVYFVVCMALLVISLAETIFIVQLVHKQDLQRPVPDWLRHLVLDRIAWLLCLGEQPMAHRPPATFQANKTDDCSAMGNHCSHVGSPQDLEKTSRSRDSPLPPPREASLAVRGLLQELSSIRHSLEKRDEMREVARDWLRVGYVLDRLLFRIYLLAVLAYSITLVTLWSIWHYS
Nature of the assay: Affinity at 5-hydroxytryptamine 3 receptor (For granisetron = Ki (nM)=0.3+/-0.01).

The target in assay [2] is T2, Adrenergic receptor alpha-2 (Rattus norvegicus, UniProt P22086+P19328+P22909).
T2 sequence (P22086 whole entry): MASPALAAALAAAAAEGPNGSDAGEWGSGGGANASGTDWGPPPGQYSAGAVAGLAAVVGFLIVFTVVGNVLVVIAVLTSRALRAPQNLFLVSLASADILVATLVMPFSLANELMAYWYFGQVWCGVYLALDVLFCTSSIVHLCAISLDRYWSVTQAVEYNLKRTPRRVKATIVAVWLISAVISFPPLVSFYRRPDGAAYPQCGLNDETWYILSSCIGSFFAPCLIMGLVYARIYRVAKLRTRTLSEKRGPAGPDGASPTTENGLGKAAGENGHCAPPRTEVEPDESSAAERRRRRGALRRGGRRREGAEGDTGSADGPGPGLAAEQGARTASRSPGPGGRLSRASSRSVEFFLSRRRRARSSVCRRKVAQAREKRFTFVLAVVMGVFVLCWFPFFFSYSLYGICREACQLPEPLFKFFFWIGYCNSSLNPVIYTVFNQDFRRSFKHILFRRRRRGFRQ
T2 sequence (P19328 whole entry): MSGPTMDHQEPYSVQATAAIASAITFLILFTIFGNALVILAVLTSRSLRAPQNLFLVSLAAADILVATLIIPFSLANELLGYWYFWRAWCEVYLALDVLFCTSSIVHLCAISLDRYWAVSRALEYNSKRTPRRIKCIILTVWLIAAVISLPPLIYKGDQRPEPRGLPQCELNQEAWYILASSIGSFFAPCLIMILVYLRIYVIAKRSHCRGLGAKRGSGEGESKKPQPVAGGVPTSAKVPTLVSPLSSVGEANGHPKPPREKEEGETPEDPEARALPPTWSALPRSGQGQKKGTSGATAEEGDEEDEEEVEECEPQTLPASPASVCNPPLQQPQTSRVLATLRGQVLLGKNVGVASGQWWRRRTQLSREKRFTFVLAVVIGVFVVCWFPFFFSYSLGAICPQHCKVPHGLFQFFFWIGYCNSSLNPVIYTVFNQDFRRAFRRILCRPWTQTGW
T2 sequence (P22909 whole entry): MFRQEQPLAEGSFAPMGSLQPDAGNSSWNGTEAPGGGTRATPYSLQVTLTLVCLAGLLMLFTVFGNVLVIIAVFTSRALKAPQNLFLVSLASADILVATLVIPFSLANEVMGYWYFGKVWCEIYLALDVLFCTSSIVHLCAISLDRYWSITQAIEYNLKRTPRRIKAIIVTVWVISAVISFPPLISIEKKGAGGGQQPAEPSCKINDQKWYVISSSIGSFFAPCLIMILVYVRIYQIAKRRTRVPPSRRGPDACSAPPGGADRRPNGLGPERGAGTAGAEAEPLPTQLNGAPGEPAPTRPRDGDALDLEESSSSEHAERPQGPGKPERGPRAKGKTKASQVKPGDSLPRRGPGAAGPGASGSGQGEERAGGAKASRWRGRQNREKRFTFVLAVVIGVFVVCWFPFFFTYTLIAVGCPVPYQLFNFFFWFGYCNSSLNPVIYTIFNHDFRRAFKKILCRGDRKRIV
Nature of the assay: Affinity towards alpha-2 adrenergic receptor (For clonidine Ki(nM)= […]+/-[…]). The class given is protein assay.

Assay [3] relates to Mus musculus. Briefly: Antidepressant-like activity in the forced swimming test (FST) in mice at 0.1 mg/kg dose. The assay is classed as functional.
In assay [4] the target is D(2) dopamine receptor (Rattus norvegicus, UniProt P61169). Nature of the assay: Affinity at dopamine D2 receptor, (For haloperidol Ki(nM)= 1.5+/-1.2).
Assay [5] relates to Mus musculus. Nature of the assay: Antidepressant-like activity in the forced swimming test (FST) in mice at 10 mg/kg dose. The assay is classed as functional.
In assay [6] the test system is Mus musculus. Briefly: Antidepressant-like activity in the forced swimming test (FST) in mice at 1 mg/kg dose. The assay is classed as functional.
The test system of assay [7] is Mus musculus. Briefly: Antidepressant-like activity in the forced swimming test (FST) in mice at 0.01 mg/kg dose; Antidepressant like activity. The assay is classed as functional.
Assay [8] concerns the target T3, 5-hydroxytryptamine receptor 1A (Homo sapiens) (UniProt P08908).
T3 sequence (whole entry): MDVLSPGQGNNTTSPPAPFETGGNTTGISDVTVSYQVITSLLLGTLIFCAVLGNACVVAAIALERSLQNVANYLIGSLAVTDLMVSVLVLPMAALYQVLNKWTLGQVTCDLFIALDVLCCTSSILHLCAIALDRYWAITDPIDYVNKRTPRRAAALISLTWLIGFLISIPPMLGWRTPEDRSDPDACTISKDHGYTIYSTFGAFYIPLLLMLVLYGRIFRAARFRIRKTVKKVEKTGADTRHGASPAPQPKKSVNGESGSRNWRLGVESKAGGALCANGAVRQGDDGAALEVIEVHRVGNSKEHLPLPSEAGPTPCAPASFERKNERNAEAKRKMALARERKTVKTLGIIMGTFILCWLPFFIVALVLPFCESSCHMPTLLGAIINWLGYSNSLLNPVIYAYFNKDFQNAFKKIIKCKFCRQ
Nature of the assay: Percent increase in the Forskolin-Stimulated cAMP formation, in HeLa cells transfected with the 5-HT 1A receptor at 1 uM concentration. The class given is functional, cell-based. (In general: cAMP levels reflect the balance of adenylyl cyclase and phosphodiesterase activity.)

For assay [9], the system named is Mus musculus. Nature of the assay: Time-dependent effect on 8-OH-DPAT-induced hypothermia (change in body temperature) after 30 min, in mice at 0.01 mg/kg dose. The class given is functional.
Assay [10] has as its system Mus musculus. Nature of the assay: Time-dependent effect on 8-OH-DPAT-induced hypothermia (change in body temperature) after 15 min, in mice at 0.01 mg/kg dose. The assay is classed as functional.
Assay [11] relates to Rattus norvegicus. Nature of the assay: Effect on helpless behavior in rats and the number of escape failures was determined in shuttle-box session-1 (SB-1) at 10 mg/kg dose. The class given is functional.
Assay [12] deals with Rattus norvegicus. Nature of the assay: Effect on helpless behavior in rats and the number of escape failures was determined in shuttle-box session-2 (SB-2) at 10 mg/kg dose. The assay is classed as functional.

Sequence of D(2) dopamine receptor (P61169 whole entry): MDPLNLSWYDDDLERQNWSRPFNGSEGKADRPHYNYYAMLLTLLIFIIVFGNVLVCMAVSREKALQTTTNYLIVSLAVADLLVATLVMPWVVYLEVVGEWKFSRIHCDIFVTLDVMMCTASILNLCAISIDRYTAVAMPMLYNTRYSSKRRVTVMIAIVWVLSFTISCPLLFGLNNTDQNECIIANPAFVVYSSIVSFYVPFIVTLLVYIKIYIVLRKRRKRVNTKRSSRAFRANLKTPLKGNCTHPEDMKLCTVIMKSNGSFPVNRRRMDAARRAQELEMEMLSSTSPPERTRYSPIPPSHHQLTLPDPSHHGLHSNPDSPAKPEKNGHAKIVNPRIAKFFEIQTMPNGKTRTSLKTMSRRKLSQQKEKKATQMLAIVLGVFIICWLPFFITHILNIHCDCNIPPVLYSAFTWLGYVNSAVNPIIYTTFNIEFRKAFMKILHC

In general, Ki refers to the equilibrium dissociation constant of an inhibitor or competing ligand from its target. A higher Ki goes with lower affinity. With `COc1ccccc1N1CCN(CCC(=O)c2csc3ccccc23)CC1`, the values for the Ki in assay [1], in [2] and in assay [4] were above 5000 nM, 280 nM and 500 nM, respectively. The results for the Activity in [3], in assay [5] and in assay [6] were 18%, 54% and 60%, respectively.
In assay [7], `COc1ccccc1N1CCN(CCC(O)c2csc3ccccc23)CC1` (configuration not stated) had an Activity of 70%. In assay [8], the cAMP increase came out at 64%. Besides, the values for the Temperature change in assay [9] and in assay [10] were -1.3 °C and -1.26 °C, respectively. For the same molecule, the entries for the “No. of escape failures” value in assay [11] and in assay [12] were 6.6 and 3.2, respectively.
